Source: patent publication US20120053235A1, “Dihydromyricetin as an IKK-beta inhibitor used for treatment of arthritis, cancer and autoimmune conditions, and other diseases or disorders” (HONG KONG BAPTIST UNIVERSITY, priority 2010, published 2012)

How the values were obtained:
[1] = test system: ear edema induced by dinitrofluorobenzene in male ICR mice; assay: Delay-type hypersensitivity test (DNFB-induced ear edema); type: in vivo; conditions: DTHT mice, topical treatment
Experimental: Male mice were sensitized through topical application of 20 μl of 0.5% (v/v) dinitrofluorobenzene (DNFB) in acetone onto the shaved abdomen on days 1 and 2. Challenge was then preformed in day 6 by applying DNFB (20 μl, 0.5%, v/v) on the left inner and outer ear surfaces of mice. DMY (at doses of 0.5, 1, 2 mg/ear) and DEX (0.025 mg/ear, Sigma-Aldrich) dissolved in acetone was topically applied (20 μl) to the ears at 2nd, 24th, 48th, and 72nd hour after the challenge. The mice were sacrificed by cervical dislocation, and then the same area of the ears was punched from each animal. Spleens and thymuses were isolated and weighted. The ear edema was calculated according to the differences between the weight of the right and left ears. The control group was treated only with DNFB.

[2] = test system: collagen II induced arthritis in female Wistar rats; assay: Collagen II induced arthritis (CIA); type: in vivo
Experimental: Collagen II solution (collagen, 2 mg/ml in 0.05M acetic acid, Chondrex 20022, Redmond, Wash., USA) was emulsified with an equal volume of incomplete Freund's adjuvant (IFA, Chondrex 7002, Redmond, Wash., USA) at 4° C. using a high-speed homogenizer. In the experiment of CIA, DMY was encapsulated with HP-CD (1:8.48) and then dissolved in the normal saline with drug concentrations of 50 and 100 mg/kg body weight. Rats were intradermally injected at the base of the tail with 100 μl collagen/incomplete Freund's adjuvant (IFA) emulsion containing […] of collagen II by the use of a glass syringe equipped with a locking hub and a 27-G needle. On day 7 after the primary immunization, all the rats were given a booster injection of 100 μg of collagen II in IFA. On the day after the onset of arthritis (day 13), the CIA rats were exposed to a daily intraperitoneal administration of DMY (50 and 100 mg/kg) until day 30 of the study. DEX (0.1 mg/kg, one per day), MTX (3.75 mg/kg, twice per week), and indomethacin (1 mg/kg, one per day) were used as positive reference drugs. The rats were inspected daily from the onset of arthritis characterized by edema and/or erythema in the paws. The incidence and severity of arthritis were evaluated using an arthritic scoring system, and bi-hind paw volumes and body weight were measured every 2 days started on the day when the arthritic signs were firstly visible (day 13). In the arthritic scoring system, lesions (i.e., the clinical arthritic signs) of the four paws of each rat were graded from 0 to 4 according to the extent of both edema and erythema of the periarticular tissues. As such, 16 was the potential maximum of the combined arthritic scores per animal. The hind paw volumes were measured using a plethysmometer chamber (7140 UGO. Basile, Comerio, Italy) and expressed as the mean volume change of both hind paws of the rats. Body weight of the rats was monitored with a 0.1 g precision balance (Sartorius AG, Goettingen, Germany). On day 30, all rats were sacrificed with liver, spleen and thymus being collected and weighted. The organ index for a specific organ is equal to the ratio of the weight of that organ to a body weight of 100 g.

spleen weight ([1]; FIGS. 9B and C)	thymus weight ([1]; FIGS. 9B and C)	organ indexes of spleen and/or thymus ([2]; rat, in vivo)	organ indexes of spleen and/or thymus ([2]; CIA rats, day 30, FIG. 10C)	Structure (SMILES)	body weight [1]	body weight ([2]; CIA rats, FIG. 100D)
decreased	decreased	significant reduction	–	C[C@@H]1C[C@H]2[C@@H]3CCC4=CC(=O)C=C[C@]4(C)[C@@]3(F)[C@@H](O)C[C@]2(C)[C@@]1(O)C(=O)CO [DEX, reference compound]	greatly reduced	–
–	–	significant reduction	–	CN(Cc1cnc2nc(N)nc(N)c2n1)c1ccc(C(=O)N[C@@H](CCC(=O)O)C(=O)O)cc1 [MTX, reference compound]	–	–
–	–	–	significant reduction	COc1ccc2c(c1)c(CC(=O)O)c(C)n2C(=O)c1ccc(Cl)cc1 [indomethacin, reference compound]	–	significant reduction in body weight
